Results: US20250249008A1, “PHARMACEUTICAL COMPOSITIONS OF ENSIFENTRINE FOR CHRONIC OBSTRUCTIVE PULMONARY DISEASE” (Verona Pharma PLC, priority 2024, published 2025)

Columns and labels:
[1] = system: patients with moderate to severe COPD; test: Clinical study in COPD: dyspnea by transition dyspnea index (TDI) in subjects using LABA + ICS; type: in vivo, human
Procedure: A clinical study was conducted to determine the efficacy of ensifentrine in treating COPD compared with placebo. Ensifentrine was administered by nebulizer at a dose of 3 mg twice daily (BID) for 24 weeks. The study was a multicenter, randomized, double-blind, parallel group, placebo-controlled trial with around 800 patients and 5:3 randomization.
The study population included patients aged 40-80 years with moderate to severe COPD (FEV1 30%-70% p.n., FEV1/forced vital capacity (FVC) ratio<0.7, with mMRC≥2). The randomization stratified (a) the use of stable background maintenance LAMA or LABA therapy use (approx. 50% yes or no) and (b) cigarette smoking (current or former). Inhaled corticosteroid (ICS) maintenance therapy was permitted in up to 20% of patients under certain provisions.
Ensifentrine was studied for its ability to treat COPD in subjects using inhalable corticosteroids (ICS) while also using a LABA.

[2] = system: patients with moderate to severe COPD; test: Clinical study in COPD: moderate/severe COPD exacerbations (rate ratio, time to first exacerbation); type: in vivo, human
From the text: A COPD exacerbation may be a moderate COPD exacerbation or a severe COPD exacerbation. A moderate exacerbation is defined as worsening symptoms of COPD (as defined hereinabove) requiring a minimum of three days of treatment with oral/systemic corticosteroids and/or antibiotics. A severe exacerbation is defined as worsening symptoms of COPD (as defined hereinabove) requiring in-patient hospitalization. In some embodiments, the pharmaceutical compositions provided herein reduce the severity of COPD exacerbations in a patient, and may be used in preventing severe COPD exacerbations in a subject. In some embodiments, pharmaceutical compositions reduce the severity of COPD exacerbations. In some embodiments, […]
Ensifentrine's ability to reduce the frequency and or severity of COPD exacerbations was studied in 1,549 subjects. Ensifentrine's ability to reduce the frequency and or severity of COPD exacerbations was assessed in various subgroup populations. In one part of the study, subjects were assessed based on whether they were diagnosed with mild or moderate COPD or severe or very severe COPD. […]
These subjects were also assessed for the time to first moderate/severe COPD exacerbation, as measured by a hazard ratio from a Cox model. […]

COc1cc2c(cc1OC)-c1c/c(=N\c3c(C)cc(C)cc3C)n(CCNC(N)=O)c(=O)n1CC2 [Ensifentrine, N-(2-{(2E)-9,10-dimethoxy-4-oxo-2-[(2,4,6-trimethylphenyl)imino]-6,7-dihydro-2H-pyrimido[6,1-a]isoquinolin-3(4H)-yl}ethyl)urea]
Transition Dyspnea Index, LS Mean ([1]; COPD medication LABA + ICS): 1.394 (0.4748)
Transition Dyspnea Index, Estimate (Ensi-Pla) ([1]; COPD medication LABA + ICS, difference ensifentrine minus placebo): 0.768
Dyspnea compared to placebo ([1]; subjects taking LABA and ICS): exhibited improvements in dyspnea
Reductions in exacerbations ([2]; subjects with baseline blood eosinophil concentrations of greater than 150 cells/μL): Reductions in exacerbations were observed
Reductions in exacerbations ([2]; subjects with baseline blood eosinophil concentrations of less than or equal to 150 cells/μL): Reductions in exacerbations were observed
